These results are taken from ChEMBL document CHEMBL1201862, “PubChem BioAssay data set” (2004).

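Compound exposure: 48 hours, 5 concentrations, 96-well plates. Here, GI50 denotes the concentration required for 50% inhibition of growth.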 The source made the active and inactive calls. No stated cut-off is given here; in the data, active = GI50 up to about 1.1 µM and inactive = higher. Where a SMILES comes first, the peptide text is derived from it. The star is where a group is joined. Cbz = O=C(OCc1ccccc1)*

Some test systems named below: A549; CAKI-1; HCT-15; HOP-92; K562; MCF7; MOLT-4; Malme-3M; NCI-H23; NCI/ADR-RES; RXF 393; SF-539; SK-MEL-2; SK-MEL-5; SK-OV-3; SNB-19; SNB-75; SK-MEL-28; A498.
Assay in all cases: NCI tumour cell line growth inhibition, 48 h

For `O=S(=O)([N-]c1nc2ccccc2nc1-[n+]1ccccc1)c1ccccc1`, the GI50 in the experiment on A549 is > 100 µM (inactive); in the experiment with CAKI-1 it was > 100 µM (inactive); with HCT-15, over 100 µM; with HOP-92, > 100 µM (inactive); with K562 it was 29.9 µM (inactive); in the experiment with MCF7, > 100 µM (inactive). The GI50 in the experiment with MOLT-4 was 23.1 µM (inactive); with Malme-3M it was > 100 µM (inactive); in the experiment with NCI-H23, 67.8 µM (inactive); in the experiment with NCI/ADR-RES it was > 100 µM (inactive); with RXF 393, > 100 µM (inactive); in the experiment with SF-539, > 100 µM (inactive). In addition, the GI50 in the experiment on SK-MEL-2, in the experiment with SK-MEL-5, in the experiment on SK-OV-3, with SNB-19 and with SNB-75 was > 100 µM (inactive) throughout.

Consider `COc1ccc(/N=N/C(=N/NC(=O)c2cc(Cl)ccc2C(=O)c2ccccc2)c2ccc(N(CCC#N)CCC#N)cc2C)cc1`, for which the GI50 was 18.8 µM (inactive) in the experiment with A549; 21.3 µM (inactive) in the experiment on CAKI-1; 13.9 µM with HCT-15; 12.9 µM (inactive) with K562; 25.4 µM (inactive) in the experiment with MCF7; 9.08 µM (inactive) in the experiment with MOLT-4. Moreover, the GI50 was 26.2 µM (inactive) with Malme-3M; 18 µM (inactive) in the experiment on NCI-H23; 16.7 µM (inactive) with NCI/ADR-RES; 3.8 µM (inactive) in the experiment with RXF 393; 25.8 µM (inactive) in the experiment with SK-MEL-28; 6.9 µM (inactive) with SK-MEL-2. Further, the GI50 with SK-MEL-5 was 15.5 µM (inactive); in the experiment on SK-OV-3, 24.4 µM (inactive); in the experiment with SNB-19, 25.9 µM (inactive); in the experiment with SNB-75 it was 27.8 µM (inactive).

Turning to `O/N=C1/CCCCCC1NO` (stereo not given), the GI50 in the experiment with A549 was > 100 µM (inactive); with CAKI-1 it was > 100 µM (inactive); with HCT-15, over 100 µM; in the experiment with HOP-92 it was > 100 µM (inactive); in the experiment with MCF7, > 100 µM (inactive); in the experiment with MOLT-4 it was > 100 µM (inactive). Besides, the GI50 in the experiment on Malme-3M, in the experiment with NCI-H23, in the experiment with NCI/ADR-RES, in the experiment with RXF 393, in the experiment on SF-539 and in the experiment on SK-MEL-28 was > 100 µM (inactive) each time. In addition, the GI50 with SK-MEL-2, with SK-MEL-5, in the experiment on SK-OV-3 and in the experiment on SNB-19 was > 100 µM (inactive) in each case.

As for `S=C(/N=c1\sc(Nc2ccc(Cl)cc2)nc2sc3c(c12)CCN(N1CCc2c(sc4nc(Nc5ccc(Cl)cc5)s/c(=N\C(=S)Nc5ccc(Cl)cc5)c24)C1)C3)Nc1ccc(Cl)cc1`, the GI50 in the experiment on A549 was 55.2 µM (inactive); in the experiment on HCT-15 it was 42.2 µM; in the experiment on MCF7, 40.6 µM (inactive); in the experiment with MOLT-4, 67 µM (inactive); with Malme-3M it was > 100 µM (inactive); in the experiment on NCI-H23 it was 53.7 µM (inactive). Further, the GI50 is 48 µM (inactive) with NCI/ADR-RES; 18.9 µM (inactive) in the experiment on RXF 393; 17.9 µM (inactive) with SF-539; 38.2 µM (inactive) with SK-MEL-28; 23.4 µM (inactive) with SK-MEL-2; 27.7 µM (inactive) with SK-OV-3. For the same compound, the GI50 is 55.2 µM (inactive) in the experiment with SNB-19 and 26.7 µM (inactive) with SNB-75.

Turning to `Cc1ccc2nc3c(=O)[nH]c(=O)nc-3n(C)c2c1C`, the GI50 was > 100 µM (inactive) in the experiment on A549; > 100 µM (inactive) in the experiment with CAKI-1; over 100 µM in the experiment with HCT-15; > 100 µM (inactive) in the experiment with K562; > 100 µM (inactive) with MCF7; > 100 µM (inactive) in the experiment on MOLT-4. Moreover, the GI50 in the experiment on Malme-3M, in the experiment with NCI-H23, in the experiment with NCI/ADR-RES, in the experiment with RXF 393, with SF-539 and in the experiment with SK-MEL-28 was > 100 µM (inactive) in each case. For the same compound, the GI50 in the experiment with SK-MEL-2, in the experiment with SK-MEL-5, in the experiment with SK-OV-3, in the experiment with SNB-19 and with SNB-75 was > 100 µM (inactive) in each case.

Take `CN(Cc1cnc2nc(N)nc(N)c2n1)c1ccc(C(=O)N[C@@H](CCS(=O)(=O)O)C(=O)O)cc1`: the GI50 in the experiment with A549 was 0.182 µM (active); with CAKI-1 it was > 100 µM (inactive); with HCT-15, 0.0514 µM; with HOP-92, > 100 µM (inactive); with K562 it was > 100 µM (inactive); in the experiment on MCF7 it was 0.127 µM (active). Moreover, the GI50 was 0.745 µM (active) with MOLT-4; 0.458 µM (active) in the experiment on NCI-H23; 1.18 µM (inactive) in the experiment on NCI/ADR-RES; 0.0611 µM (active) with RXF 393; 0.614 µM (active) in the experiment on SF-539; > 100 µM (inactive) with SK-MEL-28. Further, the GI50 was > 100 µM (inactive) in the experiment on SK-MEL-2, 0.541 µM (active) in the experiment with SK-MEL-5 and 0.582 µM (active) with SNB-19.

On to `COc1ccc(C(=O)c2cc(OC)c(OC)c(OC)c2)cc1OC`, for which the GI50 in the experiment with A549 is 4.44 µM (inactive); with HCT-15, 1.58 µM; in the experiment on K562, 2.28 µM (inactive); in the experiment with MCF7 it was 2.24 µM (inactive); in the experiment with MOLT-4, 4.17 µM (inactive); with Malme-3M it was 5.93 µM (inactive). For the same compound, the GI50 is 10.2 µM (inactive) in the experiment with NCI-H23; 3.84 µM (inactive) in the experiment with NCI/ADR-RES; 2.36 µM (inactive) in the experiment on RXF 393; 2.32 µM (inactive) in the experiment with SF-539; 5.94 µM (inactive) in the experiment with SK-MEL-28; 3.08 µM (inactive) with SK-MEL-2. Besides, the GI50 was 4.44 µM (inactive) in the experiment on SK-MEL-5, 3.21 µM (inactive) with SNB-19 and 4.04 µM (inactive) with SNB-75.

Take `O=C(NC1=C(Cl)C(=O)c2ccccc2C1=O)c1ccccc1`: the GI50 in the experiment on A549 was 52.5 µM (inactive); in the experiment on HCT-15 it was 25.2 µM; in the experiment with HOP-92, 24.9 µM (inactive); in the experiment on K562, 21.8 µM (inactive); in the experiment on MCF7 it was 19.2 µM (inactive); in the experiment on MOLT-4 it was 20.1 µM (inactive). Moreover, the GI50 was 16.9 µM (inactive) with Malme-3M; 23.8 µM (inactive) in the experiment on NCI-H23; 18.5 µM (inactive) in the experiment with NCI/ADR-RES; 18.9 µM (inactive) in the experiment with RXF 393; 50.6 µM (inactive) in the experiment with SF-539; 44.8 µM (inactive) in the experiment on SK-MEL-28. In addition, the GI50 with SK-MEL-5 was 27.5 µM (inactive); in the experiment on SNB-19, 54.2 µM (inactive); in the experiment with SNB-75 it was 65 µM (inactive).

With `CCOC(=O)C(CC(=O)OC)NC(=O)C(CC(=O)OC)NC(=O)C(CC(=O)OC)NC(=O)C(CC(=O)OC)NC(=O)OCc1ccccc1` (stereo not given) (Cbz-D(OMe)D(OMe)D(OMe)D(OMe)-OEt; configuration not given here), the GI50 in the experiment with A498 is > 100 µM (inactive); with A549 it was > 100 µM (inactive); with HCT-15 it was over 100 µM; in the experiment with HOP-92 it was > 100 µM (inactive); in the experiment on K562 it was > 100 µM (inactive); in the experiment on MCF7 it was > 100 µM (inactive). The GI50 in the experiment with MOLT-4, with Malme-3M, in the experiment with NCI-H23, with RXF 393, in the experiment with SK-MEL-28 and in the experiment with SK-MEL-2 was > 100 µM (inactive) each time. Also, the GI50 in the experiment on SK-MEL-5, with SNB-19 and with SNB-75 was > 100 µM (inactive) throughout.
